Experimental data reported in PubChem BioAssay (NCI).
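Method: 48-hour compound exposure of cells in 96-well plates, five concentrations, linear interpolation of endpoints. Definition used: TGI = concentration required for complete inhibition of growth.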

Experiments:
Test in all cases: growth of human tumour cells (NCI), 48 h
SF-295 CNS = test system: SF-295 CNS
HS 578T breast = test system: HS 578T breast
RPMI-8226 leukemia = test system: RPMI-8226 leukemia
CCRF-CEM leukemia = test system: CCRF-CEM leukemia
OVCAR-4 ovarian = test system: OVCAR-4 ovarian
UACC-62 melanoma = test system: UACC-62 melanoma
U251 CNS = test system: U251 CNS
OVCAR-5 ovarian = test system: OVCAR-5 ovarian
NCI-H226 lung = test system: NCI-H226 lung
SF-539 CNS = test system: SF-539 CNS
SN12C renal = test system: SN12C renal
MDA-MB-231 breast = test system: MDA-MB-231 breast
ACHN renal = test system: ACHN renal
RXF 393 renal = test system: RXF 393 renal
NCI/ADR-RES ovarian = test system: NCI/ADR-RES ovarian
IGROV1 ovarian = test system: IGROV1 ovarian
UACC-257 melanoma = test system: UACC-257 melanoma
HT29 colon = test system: HT29 colon
SNB-75 CNS = test system: SNB-75 CNS
NCI-H460 lung = test system: NCI-H460 lung
MDA-N = test system: MDA-N
TK-10 renal = test system: TK-10 renal
MALME-3M melanoma = test system: MALME-3M melanoma
EKVX NSCLC = test system: EKVX NSCLC
KM12 colon = test system: KM12 colon
NCI-H23 lung = test system: NCI-H23 lung
COLO 205 colon = test system: COLO 205 colon
SW-620 colon = test system: SW-620 colon
SK-MEL-5 melanoma = test system: SK-MEL-5 melanoma
HCT-116 colon = test system: HCT-116 colon
K-562 leukemia = test system: K-562 leukemia
CAKI-1 renal = test system: CAKI-1 renal
T-47D breast = test system: T-47D breast
HOP-92 NSCLC = test system: HOP-92 NSCLC
DU-145 prostate = test system: DU-145 prostate
PC-3 prostate = test system: PC-3 prostate
UO-31 renal = test system: UO-31 renal
786-0 renal = test system: 786-0 renal
SK-MEL-28 melanoma = test system: SK-MEL-28 melanoma
HOP-62 NSCLC = test system: HOP-62 NSCLC
SF-268 CNS = test system: SF-268 CNS
LOX IMVI melanoma = test system: LOX IMVI melanoma
MOLT-4 leukemia = test system: MOLT-4 leukemia
OVCAR-8 ovarian = test system: OVCAR-8 ovarian
SR leukemia = test system: SR leukemia
MDA-MB-435 = test system: MDA-MB-435
BT-549 breast = test system: BT-549 breast
OVCAR-3 ovarian = test system: OVCAR-3 ovarian
MCF7 breast = test system: MCF7 breast
SK-OV-3 ovarian = test system: SK-OV-3 ovarian
SNB-19 CNS = test system: SNB-19 CNS
HCT-15 colon = test system: HCT-15 colon
A549 NSCLC = test system: A549 NSCLC
A498 renal = test system: A498 renal
NCI-H522 lung = test system: NCI-H522 lung
HL-60(TB) leukemia = test system: HL-60(TB) leukemia
M14 melanoma = test system: M14 melanoma

Measured: TGI

COC1CC(C)(NC(C)=O)C2OC(c3ccccc3)OCC2O1 (configuration not stated)
> 100 µM: all assays above
